Measured values taken from BindingDB's records for doi:10.1021/acs.jmedchem.8b00685 (University of Glasgow, 2018).

Assay: Inhibition of human 20S constitutive proteasome beta-2 using Bz-VGR-AMC as substrate after 60 mins by fluorescence assay

Compound	IC50 [nM]
CC(C)C[C@H](NC(=O)[C@H](Cc1ccccc1)N=[N+]=[N-])C(=O)N[C@@H](CC(C)C)C(=O)N[C@@H](CCCCN)CS(=O)(=O)F	700
CC(C)C[C@H](NC(=O)[C@H](CC(C)C)NC(=O)[C@@H](N)Cc1ccccc1)C(=O)N[C@@H](Cc1ccc(CN)cc1)CS(=O)(=O)F	140
CC(=O)N[C@@H](Cc1ccccc1)C(=O)N[C@@H](CC(C)C)C(=O)N[C@@H](CC(C)C)C(=O)N[C@@H](Cc1ccc(N)cc1)CS(=O)(=O)F	2100
CC(C)C[C@H](NC(=O)[C@H](CC(C)C)NC(=O)[C@@H](N)Cc1ccccc1)C(=O)N[C@@H](Cc1ccc(N)cc1)CS(=O)(=O)F	220
CC(C)C[C@H](NC(=O)[C@H](Cc1ccccc1)N=[N+]=[N-])C(=O)N[C@@H](CC(C)C)C(=O)N[C@@H](CCCNC(=N)N)CS(=O)(=O)F	350
CC(C)C[C@H](NC(=O)[C@H](CC(C)C)NC(=O)[C@H](Cc1ccccc1)NC(=O)OCc1ccccc1)C(=O)N[C@@H](CCCNC(=N)N)CS(=O)(=O)F	150
CC(C)C[C@H](NC(=O)OCc1ccccc1)C(=O)N[C@@H](CC(C)C)C(=O)N[C@@H](CC(C)C)C(=O)N[C@@H](CCCNC(=N)N)CS(=O)(=O)F	200
CC(=O)N[C@@H](Cc1ccccc1)C(=O)N[C@@H](CC(C)C)C(=O)N[C@@H](CC(C)C)C(=O)N[C@@H](CCCCN)CS(=O)(=O)F	1500
CC(C)C[C@H](NC(=O)[C@H](CC(C)C)NC(=O)[C@H](Cc1ccccc1)NC(=O)OC(C)(C)C)C(=O)N[C@@H](CCCNC(=N)N)CS(=O)(=O)F	700
CC(=O)N[C@@H](Cc1ccccc1)C(=O)N[C@@H](CC(C)C)C(=O)N[C@@H](CC(C)C)C(=O)N[C@@H](CCCNC(=N)N)CS(=O)(=O)F	980
CC(C)C[C@H](NC(=O)[C@H](CC(C)C)NC(=O)[C@@H](N)Cc1ccccc1)C(=O)N[C@@H](CCCNC(=N)N)CS(=O)(=O)F	250
CC(=O)N[C@@H](Cc1ccccc1)C(=O)N[C@@H](CC(C)C)C(=O)N[C@@H](CC(C)C)C(=O)N[C@@H](Cc1ccc(CN)cc1)CS(=O)(=O)F	119
CC(C)C[C@H](NC(=O)[C@H](CC(C)C)NC(=O)[C@@H](N)Cc1ccccc1)C(=O)N[C@@H](CCCCN)CS(=O)(=O)F	470
